The subject of test [1] is Monoclonal antibody (mAb). Nature of the test: Binding affinity against human monoclonal antibody (mAb)-11E6.
The subject of test [2] is Monoclonal antibody (mAb). Nature of the test: Binding affinity against human monoclonal antibody (mAb)-7F2.
The subject of test [3] is Monoclonal antibody (mAb). Nature of the test: Binding affinity against human monoclonal antibody (mAb)-5C2.
The test system of test [4] is Monoclonal antibody (mAb). Nature of the test: Binding affinity against murine monoclonal antibody (mAb)-40-50.
The subject of test [5] is Monoclonal antibody (mAb). Nature of the test: Binding affinity against human monoclonal antibody (mAb)-1B3.
Test [6] addresses Monoclonal antibody (mAb). Nature of the test: Kinetic parameter against Monoclonal antibody mAB-1B3.
In test [7] the target is Monoclonal antibody (mAb). Nature of the test: Binding affinity against Monoclonal antibody mAB-1B3 using [3H]digitoxin as radioligand.
Test [8] addresses Monoclonal antibody (mAb). Nature of the test: Binding affinity against Monoclonal antibody mAB-1B3 using [3H]digoxin as radioligand.

In the case of `C[C@]12CC[C@H]3[C@@H](CC[C@]4(O)C[C@@H](O)CC[C@]34C=O)[C@@]1(O)CC[C@@H]2C1=CC(=O)OC1`, the IC50 ratio in test [1] is 66; in test [2], 84; in test [3], 470; in test [5], 3000. This molecule also had a Relative Ki in test [4] of 4.
As for `CC(=O)O[C@H]1C[C@]2(O)[C@@H]3CC[C@@H]4C[C@@H](O[C@@H]5C[C@H](O)[C@H](O[C@H]6C[C@H](O)[C@H](O[C@H]7C[C@H](O)[C@H](O)[C@@H](C)O7)[C@@H](C)O6)[C@@H](C)O5)CC[C@]4(C)[C@H]3CC[C@]2(C)[C@H]1C1=CC(=O)OC1`, the IC50 ratio stood at 400 in test [1], 330 in test [2], 290 in test [3] and 49 in test [5]. Further, the Relative Ki in test [4] worked out at 58.
As to `C[C@H]1O[C@@H](O[C@H]2CC[C@@]3(C)[C@H](CC[C@@H]4[C@@H]3C[C@@H](O)[C@]3(C)[C@@H](C5=CC(=O)OC5)CC[C@]43O)C2)C[C@H](O)[C@@H]1O`, the IC50 ratio in test [1] came to 0.9; in test [2], 1; in test [3] it was 1.3; in test [5], 5.9. In test [4], this molecule yielded a Relative Ki of 0.6.
On to `C[C@H]1O[C@@H](O[C@H]2[C@@H](O)C[C@H](O[C@H]3[C@@H](O)C[C@H](O[C@H]4CC[C@@]5(C)[C@H](CC[C@@H]6[C@@H]5C[C@@H](O)[C@]5(C)[C@@H](C7=CC(=O)OC7)CC[C@]65O)C4)O[C@@H]3C)O[C@@H]2C)C[C@H](O)[C@@H]1O` [DIGOXIN], for which the IC50 ratio in test [1], in test [2], in test [3] and in test [5] was 1 throughout. Moreover, the dissociation constant (Kd) in test [6] was found to be 3.1 nM. Moreover, the inhibition constant (Ki) came out at 0.8 nM in test [7] and 1.2 nM in test [8]. The molecule also returned a Relative Ki in test [4] of 1.
For `C[C@@H]1O[C@H](O[C@H]2CC[C@@]3(C)[C@H](CC[C@@H]4[C@@H]3CC[C@]3(C)[C@@H](C5=CC(=O)OC5)CC[C@]43O)C2)[C@@H](O)[C@@H](O)[C@@H]1O`, the IC50 ratio in test [1] amounted to 29; in test [2], 22; in test [3], 21; in test [5] it was 40. The Relative Ki in test [4] was 0.6.
With `C[C@@H]1O[C@@H](O[C@H]2C[C@@H](O)[C@]3(CO)[C@H]4[C@H](O)C[C@]5(C)[C@@H](C6=CC(=O)OC6)CC[C@]5(O)[C@@H]4CC[C@]3(O)C2)[C@H](O)[C@H](O)[C@H]1O`, the IC50 ratio was 38000 in test [1], 39000 in test [2], “No inhibition” in test [3] and 4100 in test [5]. The molecule further came in with a Relative Ki in test [4] of 7.
`C[C@H]1O[C@@H](O[C@H]2[C@@H](O)C[C@H](O[C@H]3[C@@H](O)C[C@H](O[C@H]4CC[C@@]5(C)[C@H](CC[C@@H]6[C@@H]5CC[C@]5(C)[C@@H](C7=CC(=O)OC7)CC[C@]65O)C4)O[C@@H]3C)O[C@@H]2C)C[C@H](O)[C@@H]1O` [DIGITOXIN]: the IC50 ratio amounted to 1.7 in test [1], 8 in test [2], 10 in test [3] and 0.3 in test [5]. Moreover, the affinity in test [6], expressed as Kd, was 0.6 nM. In addition, the Ki came out at 0.2 nM in test [7] and 0.1 nM in test [8]. Further, the Relative Ki in test [4] stood at 1.
For the molecule `CC(=O)[C@H]1CC[C@H]2[C@@H]3CCC4=CC(=O)CC[C@]4(C)[C@H]3CC[C@]12C` [PROGESTERONE], the IC50 ratio amounted to 100 in test [1], 69 in test [2], 55 in test [3] and 36000 in test [5]. Moreover, affinity in test [8] was put at a Ki of 36000 nM.
Consider `C[C@]12CC[C@H](O)C[C@H]1CC[C@@H]1[C@@H]2C[C@@H](O)[C@]2(C)[C@@H](C3=CC(=O)OC3)CC[C@]12O` [DIGOXIGENIN], for which the IC50 ratio stood at 6.2 in test [1], 4.6 in test [2], 2.9 in test [3] and 2700 in test [5]. Besides, the inhibition constant (Ki) in test [7] is 1700 nM; in test [8], 3100 nM. In test [4], the Relative Ki came out at 2.
As for `C[C@H]1O[C@@H](O[C@H]2[C@@H](O)C[C@H](O[C@H]3[C@@H](O)C[C@H](O[C@H]4CC[C@@]5(C)[C@H](CC[C@@H]6[C@@H]5CC[C@]5(C)[C@@H](C7=CC(=O)OC7)[C@@H](O)C[C@]65O)C4)O[C@@H]3C)O[C@@H]2C)C[C@H](O)[C@@H]1O`, the IC50 ratio was 73 in test [1], 81 in test [2], 130 in test [3] and 11 in test [5]. The molecule further yielded a Relative Ki in test [4] of 16.
Consider `CO[C@@H]1[C@H](O)[C@@H](O[C@@H]2C[C@H]3CC[C@@H]4[C@H](CC[C@]5(C)[C@@H](C6=CC(=O)OC6)CC[C@]45O)[C@@]3(C)[C@H](O)C2)O[C@@H](C)[C@@H]1O`, for which, in test [4], the Relative Ki is 0.5.
As to `CO[C@H]1C[C@H](O[C@H]2CC[C@@]3(C)[C@H](CC[C@@H]4[C@@H]3CC[C@]3(C)[C@@H](C5=CC(=O)OC5)[C@@H](OC(C)=O)C[C@]43O)C2)O[C@@H](C)[C@@H]1O`, the IC50 ratio was 3100 in test [1], 3200 in test [2], “No inhibition” in test [3] and 180 in test [5]. In addition, the Relative Ki in test [4] turned out to be 200.
Take `C[C@]12CC[C@H](O)C[C@H]1CC[C@@H]1[C@@H]2CC[C@]2(C)[C@@H](C3=CC(=O)OC3)[C@@H](O)C[C@]12O`: the IC50 ratio in test [1] was 2100; in test [2], 2000; in test [3] it was 2700; in test [5], 4700. The same molecule yielded a Relative Ki in test [4] of 93.
Consider `C[C@]12C[C@@H](O)[C@H]3[C@@H](CC[C@]4(O)C[C@@H](O)C[C@@H](O)[C@]34CO)[C@@]1(O)CC[C@@H]2C1=CC(=O)OC1`, for which the IC50 ratio in test [1] was 6600; in test [2], 13000; in test [3], “No inhibition”; in test [5], 52000. The molecule further gave a Relative Ki in test [4] of 9.
In turn, `C[C@H]1O[C@@H](O[C@H]2[C@@H](O)C[C@H](O[C@H]3[C@@H](O)C[C@H](O[C@H]4CC[C@@]5(C)[C@H](CC[C@@H]6[C@@H]5CC[C@]5(C)[C@@H](C7=CC(=O)OC7)[C@@H](OC=O)C[C@]65O)C4)O[C@@H]3C)O[C@@H]2C)C[C@H](O)[C@@H]1O` gave a Relative Ki in test [4] of 35.
`CC(=O)O[C@H]1CC[C@@]2(C)[C@H](CC[C@@H]3[C@@H]2C[C@@H](O)[C@]2(C)[C@@H](C4=CC(=O)OC4)CC[C@]32O)C1`: the IC50 ratio came to 96 in test [1], 110 in test [2], 140 in test [3] and 70 in test [5]. Further, the Relative Ki in test [4] came out at 0.7.
Consider `C[C@]12CC[C@H](O)C[C@H]1CC[C@@H]1[C@@H]2CC[C@]2(C)[C@@H](C3=CC(=O)OC3)CC[C@]12O` [DIGITOXIGENIN], for which the IC50 ratio in test [1] was found to be 14; in test [2], 16; in test [3], 14; in test [5], 1800. The values for the inhibition constant (Ki) in test [7] and in test [8] were 880 nM and 1000 nM, respectively. The Relative Ki in test [4] was determined as 2.
With `CC(=O)O[C@H]1C[C@]2(O)[C@@H]3CC[C@@H]4C[C@@H](O[C@H]5C[C@H](O)[C@H](O)[C@@H](C)O5)CC[C@]4(C)[C@H]3CC[C@]2(C)[C@H]1C1=CC(=O)OC1`, the Relative Ki in test [4] stood at 4.
The same measure, in the same setting: in the case of `CC(=O)O[C@H]1CC[C@@]2(C)[C@H](CC[C@@H]3[C@@H]2CC[C@]2(C)[C@@H](C4=CC(=O)OC4)[C@@H](O)C[C@]32O)C1` it was 74.
For the molecule `CO[C@H]1[C@H](O)[C@H](O[C@H]2CC[C@@]3(C)[C@H](CC[C@@H]4[C@@H]3CC[C@]3(C)[C@@H](C5=CC(=O)OC5)CC[C@]43O)C2)O[C@@H](C)[C@@H]1O`, the IC50 ratio in test [1] was 17; in test [2], 9.5; in test [3], 21; in test [5] it was 69. The same molecule returned a Relative Ki in test [4] of 1.
In test [4], `CO[C@H]1[C@@H](O)[C@@H](C)O[C@@H](O[C@H]2CC[C@@]3(C)[C@H](CC[C@@H]4[C@@H]3CC[C@]3(C)[C@@H](C5=CC(=O)OC5)C(O)C[C@]43O)C2)[C@@H]1O` (stereo partly specified) displayed a Relative Ki of 35.
`C[C@]12CC[C@H]3[C@@H](CC[C@]4(O)C[C@@H](O)CC[C@]34CO)[C@@]1(O)CC[C@@H]2C1=CC(=O)OC1`: in test [4], the Relative Ki was 4.
Consider `CC(=O)O[C@H]1CC[C@]2(C=O)[C@H]3CC[C@]4(C)[C@@H](C5=CC(=O)OC5)CC[C@]4(O)[C@@H]3CC[C@]2(O)C1`, for which the IC50 ratio came to 18 in test [1], 17 in test [2], 44 in test [3] and 600 in test [5]. The molecule further displayed a Relative Ki in test [4] of 10.
